Assay [1] deals with T1, ^FIREmate and ^FIREtag (fused to FRB and FKBP) (Halorhodospira halophila, UniProt P16113, A30V/C69G/D97P/F96I, form not given/G21E/G25R/K17N/M100R/M109L/Q41L/Q99S/S72T/T101G/V83A/Y94W/Y98T).
T1 sequence (P16113 1-114 A30V/C69G/D97P/F96I/G21E/G25R/K17N/M100R/M109L/Q41L/Q99S/S72T/T101G/V83A/Y94W/Y98T): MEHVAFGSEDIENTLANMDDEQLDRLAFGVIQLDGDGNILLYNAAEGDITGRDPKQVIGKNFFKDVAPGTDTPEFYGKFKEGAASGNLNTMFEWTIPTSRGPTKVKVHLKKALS
The assay is described as follows: Flow cytometry of fluorescent ternary assembly formation in HEK293T cells co-expressing FKBP-^FIREtag and FRB-^FIREmate. In kind it is cell-based. How it is done:
FIGS. 2A and 2B are graphs illustrating the fluorogen-dependent interaction between the two polypeptides ^FIREmate and ^FIREtag. The graphs show the normalized average fluorescence detected from about 50,000 HEK293T cells co-expressing the FK506-binding protein (FKBP) fused to ^FIREtag and the FKBP-rapamycin-binding domain of mammalian target of rapamycin (FRB) fused to ^FIREmate treated without (triangles) or with (squares) 500 nM of rapamycin, and with 1, 5, 10, 25 or 50 μM of HBR-2,5DM (2A) or HMBR (2B). Data represent the mean values±SD of three independent experiments.
The formation of a fluorescent ternary assembly was assessed by flow cytometry in HEK293 cells expressing ^FIREmate and ^FIREtag fused to the C-termini of FKBP (FK506-binding protein) and FRB (FKBP-rapamycin-binding domain of mammalian target of rapamycin), […]. FKBP and FRB are able to dimerize upon addition of rapamycin. Treatment of the HEK293 cells with rapamycin is thus expected to induce the dimerization of FKBP and FRB, and subsequently to induce proximity between ^FIREtag and ^FIREmate.

The target in assay [2] is T2, ^FIREmate and ^FIREtag (TOM20-ECFP-^FIREmate / mCherry-^FIREtag) (Halorhodospira halophila, UniProt P16113, A30V/C69G/D97P/F96I, form not given/G21E/G25R/K17N/M100R/M109L/Q41L/Q99S/S72T/T101G/V83A/Y94W/Y98T).
T2 construct: TOM20(1-34)-ECFP-FIREmate and mCherry-FIREtag in HeLa or U2OS cells
T2 sequence (P16113 1-114 A30V/C69G/D97P/F96I/G21E/G25R/K17N/M100R/M109L/Q41L/Q99S/S72T/T101G/V83A/Y94W/Y98T): T1 sequence (P16113 1-114 A30V/C69G/D97P/F96I/G21E/G25R/K17N/M100R/M109L/Q41L/Q99S/S72T/T101G/V83A/Y94W/Y98T)
The assay can be described thus: Recruitment of cytoplasmic mCherry-^FIREtag to mitochondria (TOM20-ECFP-^FIREmate), time-lapse confocal microscopy, HeLa cells. In kind it is cell-based. The conditions noted are these: 10 μM. How it is done: FIGS. 3A-E illustrate the recruitment of cytoplasmic proteins to mitochondria with the proximity inducing system described herein. FIG. 3A is a schematic representation of the experimental design wherein HeLa cells co-expressing mCherry-^FIREtag and Tom20-ECFP-^FIREmate were treated with 10 μM of match (either HBR-2,5DM or HMBR), and imaged by time-lapse confocal microscopy. FIGS. 3B-C are graphs showing the temporal evolution of the FIRE signal detected upon addition at 0 min of HBR-2,5DM (match1-3B) or HMBR (match2-3C). Data represents the mean values±SD of 20 cells from n=3 independent experiments (3B, D), or of 10 cells from n=3 independent experiments (3C, E). FIGS. 3D-E are sets of representative confocal micrographs of cells before (0 min) and after (5 min) addition of HBR-2,5DM (match1-3D) or HMBR (match2-3E) (mCherry: ex/em 561/606-675 nm; FIRE: ex/em 488/508-570 nm; ECFP: ex/em 445/455-499 nm). […] Scale bars are 20 μm.
FIGS. 4A-D illustrate the recruitment over time of cytoplasmic proteins to mitochondria with the proximity inducing system described herein. (4A, C) HeLa cells co-expressing mCherry-^FIREtag and Tom20-ECFP-^FIREmate were treated with 10 μM HBR-2,5DM and imaged by time-lapse confocal microscopy at 1 image per 5 seconds. […] FIG. 4C is a graph showing the temporal evolution of the FIRE signal detected in HeLa cells upon addition of HBR-2,5DM at 0 sec. […] FIG. 4D is a graph showing the temporal evolution of the FIRE signal detected in U2OS cells upon addition of HBR-2,5DM at 0 min. […]
The confocal micrographs were acquired on a Zeiss LSM 980 Laser Scanning Microscope equipped with a plan apochromat 63x/1.4 NA oil immersion objective. […] The images were analyzed using Icy (2.4.0.0) and Fiji (Image J). In short, to track fluorescence signal in a specific organelle, a ROI (region of interest) was determined by masking the signal in the ECFP (Enhanced Cyan Fluorescent Protein) channel with the plug-in HK-means with the following parameters: intensity class equals 100, minimum object size (pixels or px) equals 500, maximum object size (px) equals 1500-3000. […]

Molecules are shown by their SMILES.

The record followed here is US20260309717A1, “PROXIMITY INDUCING SYSTEM AND USES THEREOF” (SORBONNE UNIVERSITE, priority 2022, published 2026).

In the case of `Cc1cc(/C=C2\SC(=S)NC2=O)c(C)cc1O` [HBR-2,5DM, (Z)-5-(4-hydroxy-2,5-dimethylbenzylidene)-2-thioxo-1,3-thiazolidin-4-one], the “dimerization of FKBP and FRB (induced proximity)” value in assay [1] (absence of rapamycin) is “able to induce the dimerization of FKBP and FRB”. Moreover, in assay [1] (fluorogen 1, 5, 10, 25 or 50 μM, HEK293 cells), the “formation of a ternary fluorescent assembly” value is reported as “induced the formation of a ternary fluorescent assembly at all tested fluorogen concentrations”. Moreover, the “dependence of ternary fluorescent assembly formation on rapamycin (initial proximity)” value in assay [1] (with or without 500 nM rapamycin, fluorogen 1-50 μM) is “regardless of the presence or absence of rapamycin”. The “half-time of formation of the ternary fluorescent assembly” value in assay [2] (1 image per 5 seconds) is “about 20 seconds”. For the same compound, the “translocation of mCherry-^FIREtag from cytosol to mitochondria” value in assay [2] (5 min) is listed as “very rapid translocation of the mCherry-^FIREtag fusion protein from the cytosol to mitochondria”. Besides, in assay [2] (ex/em 488/508-570 nm), the “FIRE signal (fluorescence) at the mitochondria” value is “simultaneous appearance of a strong green fluorescent signal”.
